Experimental data reported in patent US5688771A, “Lipophilic oligopeptides with immunomodulating activity” (priority 1993, dated 1997).
Values joined by “and” are separate entries in the source; they are usually repeats but may differ in a detail not shown here. Equal entries are not always repeated. “Also recorded” adds a separate entry of the source. Where two headings read alike, the source gives them in different places.

Assays:
[1] = test system: Macrophage function (IL-1 activity in splenocytes); assay: Macrophage function, IL-1 activity in splenocytes by [3H]thymidine uptake in PHA-stimulated thymocytes
Method: (§1) Mice were administered a 50 mg/kg dose of the immunomodulators of the invention and were subsequently sacrificed. The spleens were harvested and splenocytes isolated. Immunologic assays were conducted on those splenocytes that were taken 24 hours after final treatment. These cells were subjected to tests to determine macrophage and natural killer (NK) cell function.
Ribavarin (1-β-D-ribofuranosyl-1,2,4-triazole-carboxamide) was used in each subsequent experiment as a control.
(§2) Animals were treated with a 50 mg/kg/day dosage of one of the tested compound and were killed 24 hr after the final treatment and their spleens removed. […] Red blood cells were removed by haemolytic lysis.
Macrophage function was assessed by an interleukin-1 (IL-1) assay that utilizes responsiveness of mouse thymocytes to phytohemagglutin (PHA) which is dependent on IL-1 for its reactivity.
The cells were incubated 72 hr at 37° C. During the last 4 hr of the incubation, the cells were pulsed with [^3 H] thymidine (1 μCi/well). The cells were then harvested and [H^3 ] thymidine incorporation was determined using a direct counter.

YAC-1 tumor cells [2] = assay: Natural killer cell activity, 4 hr chromium release assay
Method: as §1
Three week-old C57 BL/6 mice were procured and quarantined for 24 to 48 hours prior to treatment. The five oligopeptides described in tables 2, 3 and 4 were admixed with a 0.4% water solution of carboxymethylcellulose. The solutions were stored at 4° C. until use. Ribavarin (1-β-D-ribofuranosyl-1,2,4-triazole-carboxamide) was used in each subsequent experiment as a control.
as §2
Natural killer (NK) activity of murine cells was determined by testing splenic cells for their ability to lyse YAC-1 tumor cells in a conventional 4 hr chromium release assay as an indicator of NK was expressed as: % chromium release=(experimental counts per minute (cpm)-background cpm)/(maximum cpm-background cpm)

[3] = test system: murinecytomegalovirus (MCMV) (Smith strain); assay: MCMV titers in tissues; assay type: in vivo, Swiss Webster female mice
[4] = test system: IgM antibody against SRBC antigen; assay: Enzyme immunoassay of IgM antibody in blood of SRBC-immunized mice; assay type: in vivo; conditions: Experiment 7, 10 mg/kg i.p.
Method: Outbred CD1 mice were immunized with 0.1% volume for volume sheep red blood cell antigen suspended in saline. The mice were injected intraperitoneally with 0.5 ml, suspension of approximately 2×10^7 cells.
The mice were injected shortly thereafter with a suspension of an immunomodulator of the invention. The immunomodulator dose was a 0.23 ml of a 1 mg/ml suspension in phosphate buffered saline. The injected dose was 10 mg/kg. The second injection was also intraperitoneal.
The mice were killed five days after injections. Blood samples were taken for analysis of immunoglobulin. The determination was made by enzyme immunoassay using an anti μ-horseradish peroxidase conjugate. The spleen was removed, transferred to a petri dish containing 2 ml of Hank's balanced salt solution and 10 mMolar Hepes buffer (HBSS-HEPES). The spleen was gently crushed by the use of forceps, and the cell suspension was filtered through cotton gauze to eliminate cellular debris. The filtered suspension was brought to volume (5 ml) by the addition of HBSS-HEPES, the cells counted, and the suspension diluted to a final concentration of 5×10^6 cells/ml.

[5] = test system: Total T and B cells in splenocytes; assay: Splenic T and B cell enumeration by FACS; assay type: in vivo, C57BL/6 mice
From the text: Splenic cells were enumerated with the following assay. Dispersed splenocytes were reacted with fluorescein isothiocyanate-labelled murine monoclonal antibody anti-Ly5 for B cell enumeration and phycoerythrin-labelled monoclonal antibody anti-Thy 1.2 for T cell counts. The labelled cells were then enumerated with a fluorescence-activated cell sorter (FACS) (EPICS-C, Coulter Corp., Hialeah, Fla.).

YAC-1 tumor cells [6] = assay type: in vivo, BALB/c mice; conditions: for Mean percent chromium release (2SE), Effector:Target 25:1 / Mean percent chromium release (2SE), Effector:Target 50:1 / Mean percent chromium release (2SE), Effector:Target 100:1: ip, Hydrochloride
[7] = test system: murinecytomegalovirus (MCMV) (Smith strain); assay: Mortality in MCMV-infected mice; assay type: in vivo, Swiss Webster female mice; conditions: for Survivors (%) / Survivors/total / Mean day to death: MCMV-infected mice; for Survivors (%) / Survivors/total: 21 days; for Mean day to death: of mice that died on or before day 21
[8] = test system: Macrophage activation (IL-1 concentration); parameters: species or system BALB/c mice; conditions: mouse, in vivo, Hydrochloride
[9] = test system: antibody producing cells (SRBC antigen); assay: Plaque forming assay (PFC) in spleen cells of SRBC-immunized mice; assay type: in vivo
[10] = Toxicity controls: mortality and weight gain in uninfected mice; assay type: in vivo; conditions: uninfected mice; for Mean Weight Gain: start of treatment to 24 hours after final treatment
Method: Groups of 5 uninfected mice were treated the same way and at the same times as described above. These animal were checked daily for survival. Their weigths were taken before the first treatment and 24 hours after the last treatment to determine drug effect on weight gain.

[11] = 50 mg/kg/day i.p. every other day for 4 injections, splenocytes 24 hr after final treatment, n = 5
[12] = 50 mg/kg, splenocytes 24 hours after final treatment, Hydrochloride
[13] = prophylactic treatment, three doses 50-200 mg/kg i.p., Hydrochloride
[14] = 50 mg/kg, splenocytes, Hydrochloride
[15] = 50 mg/kg i.p. days -1,+1,+3,+5,+7
[16] = 100 mg/kg i.p. days -1,+1,+3,+5,+7
[17] = 200 mg/kg i.p. days -1,+1,+3,+5,+7

CCCCCCCCCCCCCCCCCCN[C@H](C)C(=O)N[C@@H](CCC(N)=O)C(=O)O.Cl [BCH-527, Octadecyl D-Alanyl L-Glutamine Hydrochloride]
Mean CPM of Treated Thymocytes ± SD [1, 11]: 5660 ± 1011 CPM | Effect on macrophage function (in words) [1, 12]: somewhat stimulatory; also recorded: macrophage stimulation | % Chromium Release ± SD, Effector:Target Ratio 25:1 (YAC-1 tumor cells [2]; [11]): 13.9 ± 2.0% | % Chromium Release ± SD, Effector:Target Ratio 50:1 (YAC-1 tumor cells [2]; [11]): 24.0 ± 1.7% | Effect on natural killer (NK) cell activity (in words) (YAC-1 tumor cells [2]; [12]): significantly stimulate; also recorded: stimulated | Virus titer in Liver ([3]; Day 3, 50 mg/kg): 3.1±0.7 Log10 CCID50/qram | Virus titer in Lung ([3]; Day 3, 50 mg/kg): < 2.5±0.0 Log10 CCID50/qram | Virus titer in spleen ([3]; Day 3, 50 mg/kg): 6.1±0.6 Log10 CCID50/qram | Virus titer in Liver ([3]; Day 3, 100 mg/kg): 2.9±0.7 Log10 CCID50/qram | Virus titer in Lung ([3]; Day 3, 100 mg/kg): < 2.5±0.0 Log10 CCID50/qram | Virus titer in salivary gland ([3]; Day 3, 100 mg/kg): 3.0±0.4 Log10 CCID50/qram | Virus titer in spleen ([3]; Day 3, 100 mg/kg): 4.7±1.6 Log10 CCID50/qram | Virus titer in Liver ([3]; Day 3, 200 mg/kg): 2.9±0.4 Log10 CCID50/qram | Virus titer in Lung ([3]; Day 3, 200 mg/kg): < 2.5±0.0 Log10 CCID50/qram | Virus titer in salivary gland ([3]; Day 3, 200 mg/kg): < 2.5±0.0 Log10 CCID50/qram | Virus titer in spleen ([3]; Day 3, 200 mg/kg): 5.3±0.4 Log10 CCID50/qram | Virus titer in Liver ([3]; Day 6, 50 mg/kg): 3.1±1.1 Log10 CCID50/qram | Virus titer in Lung ([3]; Day 6, 50 mg/kg): 3.4±0.6 Log10 CCID50/qram | Virus titer in spleen ([3]; Day 6, 50 mg/kg): 4.3±1.2 Log10 CCID50/qram | Virus titer in Liver ([3]; Day 6, 100 mg/kg): < 2.5±0.0 Log10 CCID50/qram | Virus titer in Lung ([3]; Day 6, 100 mg/kg): 3.9±0.8 Log10 CCID50/qram | Virus titer in salivary gland ([3]; Day 6, 100 mg/kg): 2.8±0.3 Log10 CCID50/qram | Virus titer in spleen ([3]; Day 6, 100 mg/kg): 4.9±0.6 Log10 CCID50/qram | Virus titer in Liver ([3]; Day 6, 200 mg/kg): < 2.5±0.0 Log10 CCID50/qram | Virus titer in Lung ([3]; Day 6, 200 mg/kg): 3.1±0.4 Log10 CCID50/qram | Virus titer in salivary gland ([3]; Day 6, 200 mg/kg): 3.5±0.7 Log10 CCID50/qram | Virus titer in spleen ([3]; Day 6, 200 mg/kg): 3.7±0.7 Log10 CCID50/qram | Effect on tissue virus titres (in words) [3, 13]: reduced MCMV tissue virus titres; also recorded: reducing tissue virus titres | Enzyme Immunoassay, IgM antibody relative to control (100%) [4]: 523% | % Cells/Spleen ± SD, B Cells ([5]; 50 mg/kg/day i.p. every other day for 4 injections, anti-Ly5, n = 5): 43 ± 1.5% | % Cells/Spleen ± SD, T Cells ([5]; 50 mg/kg/day i.p. every other day for 4 injections, anti-Thy 1.2, n = 5): 39 ± 2.3% | Effect on B cell counts (in words) [5, 14]: increase % B cells; also recorded: increased B cell counts | Effect on T cell counts (in words) [5, 14]: suppressing T cells; also recorded: suppressed T cell counts | Effect on NK cells (in words) (YAC-1 tumor cells [6]; after 4 injections at 100 and 50 mg/kg/day, […]): strong activation of NK cells | Effect on natural killer cells activity (in words) (YAC-1 tumor cells [6]; mouse, in vivo): stimulated the natural killer cells activity | Mean percent chromium release (2SE), Effector:Target 25:1 (YAC-1 tumor cells [6]; mouse, in vivo, 50 mg/kg/day): 10.8(1.3) percent and 12.7(0.4) percent and 14.8(0.9) percent | Mean percent chromium release (2SE), Effector:Target 50:1 (YAC-1 tumor cells [6]; mouse, in vivo, 50 mg/kg/day): 17.6(1.1) percent and 17.1(0.6) percent and 18.5(1.0) percent | Mean percent chromium release (2SE), Effector:Target 100:1 (YAC-1 tumor cells [6]; mouse, in vivo, 50 mg/kg/day): 21.2(2.9) percent and 23.3(1.0) percent and 23.9(1.1) percent | Mean percent chromium release (2SE), Effector:Target 25:1 (YAC-1 tumor cells [6]; mouse, in vivo, 100 mg/kg/day): 10.6(1.8) percent and 11.8(1.7) percent and 16.9(1.3) percent | Mean percent chromium release (2SE), Effector:Target 50:1 (YAC-1 tumor cells [6]; mouse, in vivo, 100 mg/kg/day): 16.6(1.9) percent and 16.4(1.8) percent and 20.8(1.4) percent | Mean percent chromium release (2SE), Effector:Target 100:1 (YAC-1 tumor cells [6]; mouse, in vivo, 100 mg/kg/day): 20.0(2.0) percent and 22.3(2.0) percent and 26.5(1.6) percent | Mean percent chromium release (2SE), Effector:Target 25:1 (YAC-1 tumor cells [6]; mouse, in vivo, 200 mg/kg/day): 11.3(0.6) percent and 8.6(0.6) percent and 9.6(0.9) percent | Mean percent chromium release (2SE), Effector:Target 50:1 (YAC-1 tumor cells [6]; mouse, in vivo, 200 mg/kg/day): 17.3(1.4) percent and 12.8(0.7) percent and 12.9(0.9) percent | Mean percent chromium release (2SE), Effector:Target 100:1 (YAC-1 tumor cells [6]; mouse, in vivo, 200 mg/kg/day): 20.4(2.4) percent and 18.2(1.0) percent and 17.6(1.1) percent | Survivors (%) [7, 15]: 90% | Survivors/total [7, 15]: 9/10 | Mean day to death ([7]; 50 mg/kg i.p.): 4.0 ± 0.0 days | Survivors (%) [7, 16]: 78% | Survivors/total [7, 16]: 7/9 | Mean day to death ([7]; 100 mg/kg i.p.): 10.5 ± 6.3 days | Survivors (%) [7, 17]: 100% | Survivors/total [7, 17]: 10/10 | Mean day to death ([7]; 200 mg/kg i.p.): > 21 days | Effect on death in CMV-challenged mice (in words) [7, 13]: prevented death; also recorded: preventing death | IL-1 Conc. (2SE) ([8]; 200 mg/kg/day): 16.6(3.7) μg/ml and 31.4(3.4) μg/ml and 29.1(7.4) μg/ml | Effect on macrophage activation (in words) [8]: significant macrophage activator; also recorded: macrophage stimulation | Plaque Assay, PFC relative to control (100%) ([9]; Experiment 7, mice, 10 mg/kg i.p.): 6843% | Plaque Assay, PFC per 10^6 spleen cells ([9]; Experiment 7, mice, 10 mg/kg i.p., five days after injections): 479 ± 322 PFC per 10^6 spleen cells | Immunomodulating activity (in words) ([9]; plaque-forming assay, Table 1): immunostimulants | Survivors (%) ([10]; 50 mg/kg): 100% | Survivors/total ([10]; 50 mg/kg): 5/5 | Mean Weight Gain ([10]; 50 mg/kg): 8.4 gm | Survivors (%) ([10]; 100 mg/kg): 100% | Survivors/total ([10]; 100 mg/kg): 5/5 | Mean Weight Gain ([10]; 100 mg/kg): 9.0 gm | Survivors (%) ([10]; 200 mg/kg): 100% | Survivors/total ([10]; 200 mg/kg): 5/5 | Mean Weight Gain ([10]; 200 mg/kg): 6.9 gm
